In US9862724B2, “Pyrazolo[1,5-a]pyrimidine-based compounds, compositions comprising them, and methods of their use” (LEXICON PHARMACEUTICALS, INC., priority 2013, dated 2018):

Experiments:
[1] = target: T1, AAK1 (full-length human protein) (Homo sapiens, UniProt Q2M2I8); assay: P81 filter plate assay; format: biochemical; details: 0.2 nM 2x AAK1, Mu2 substrate, 33P-ATP; class symbols
T1 construct: NP_055726.2
Protocol: Compounds were serially diluted into a Labcyte LDV plate (Labcyte, cat# LP-0200) using a Mutiprobe (PerkinElmer) and Biomek FX (Beckman Coulter) so that the highest compound concentration was at 96 μM. Compounds were then pinged (75 nL per well) into a Greiner 384-well reaction plate (Greiner, #781076) using an ECHO 550 Liquid Handler (Labcyte). A total of 12 μl reaction buffer (IMAP buffer containing Tween and DTT, from Molecular Devices) was then added to each well of columns 1 and 13 for the negative controls and 12 μl of 2×AAK1 (0.2 nM full-length human protein, NCBI accession no. NP_055726.2) was added to the remaining wells. Enzyme was then pre-incubated with compound for 10 minutes at RT. Reactions were initiated upon Minitrak (PerkinElmer) addition of 12 μl substrate mix containing 2×Mu2 (0.2 μM, full length human protein), 2× cold ATP (2 μM), and 1.3 μCi of hot ^33P-ATP. Reactions proceeded for one hour at RT. Meanwhile, Millipore 384-well P81 filter plates (Millipore, catalog # MZPHN0W10) were placed on a plate washer (Zoom ZW, from Titertek) and pre-wet with 50 μl […] phosphoric acid. Kinase reactions were then stopped upon addition of 24 μl of 2% phosphoric acid to each well and the Minitrak was then used to transfer 40 μl from each well into the pre-wet Millipore 384-well P81 filter plates. Reaction mixtures were incubated for 10 minutes at room temperature in the P81 plates, followed by washing five times with 100 μl/well of 1% phosphoric acid using the Zoom filter washer. The bottom of each filter plate was sealed followed by addition of 20 μl Microscint 40 to each well, sealing the top of the plates with Flashplate cover, and then waiting one hour until reading on the TopCount (PerkinElmer).

AAK1 = target: T2, AAK1 (Homo sapiens, UniProt Q2M2I8); assay: HEK281 cell-based assay (phospho-mu2 Western blot in transfected HEK293F cells); details: HEK293F cells transfected with human AAK1 and AP2M1; 3 hours; class symbols; read-out: CBA IC50
T2 construct: expressed in transfected cells; host or cells: HEK293F
T2 sequence (Q2M2I8 1-863 isoform Q2M2I8-2): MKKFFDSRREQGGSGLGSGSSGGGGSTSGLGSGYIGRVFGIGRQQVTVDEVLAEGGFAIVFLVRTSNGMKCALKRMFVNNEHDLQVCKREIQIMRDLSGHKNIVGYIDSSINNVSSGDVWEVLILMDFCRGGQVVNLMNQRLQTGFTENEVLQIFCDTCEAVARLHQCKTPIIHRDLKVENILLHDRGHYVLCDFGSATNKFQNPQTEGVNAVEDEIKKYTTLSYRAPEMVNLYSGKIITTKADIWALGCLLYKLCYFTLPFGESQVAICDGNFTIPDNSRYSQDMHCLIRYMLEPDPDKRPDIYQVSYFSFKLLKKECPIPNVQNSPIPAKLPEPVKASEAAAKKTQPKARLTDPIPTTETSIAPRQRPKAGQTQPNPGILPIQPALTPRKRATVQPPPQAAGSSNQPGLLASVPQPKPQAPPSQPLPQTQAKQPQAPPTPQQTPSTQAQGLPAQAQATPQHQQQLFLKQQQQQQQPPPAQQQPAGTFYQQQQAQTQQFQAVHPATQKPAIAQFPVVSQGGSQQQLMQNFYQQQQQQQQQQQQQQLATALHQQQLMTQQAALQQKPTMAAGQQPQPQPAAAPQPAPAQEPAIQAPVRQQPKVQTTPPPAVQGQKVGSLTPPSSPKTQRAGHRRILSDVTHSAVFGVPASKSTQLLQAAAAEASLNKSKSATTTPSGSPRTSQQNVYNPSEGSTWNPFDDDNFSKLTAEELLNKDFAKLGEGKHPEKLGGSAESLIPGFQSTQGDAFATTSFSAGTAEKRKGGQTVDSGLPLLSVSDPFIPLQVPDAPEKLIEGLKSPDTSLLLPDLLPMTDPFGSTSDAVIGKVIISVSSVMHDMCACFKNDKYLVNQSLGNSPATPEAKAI
Protocol: HEK293F cells were cultured in media containing DMEM (Gibco, cat. #11965), 10% FBS (SAFC Biosciences, cat. #12103C), 1×GPS (glutamine, penicillin and streptomycin). On day one, cells were plated on a 10 cm dish so that they are ˜80% confluent at time of transfection. Roughly 12 million cells were in a 10 cm dish at time of transfection. On day two, each dish was transfected with 48 ug DNA and 144 ul Lipofectamine 2000 (Invitrogen, cat.#11668-019). The DNA was comprised of a mixture (per 10 cm dish) containing 3 ug AAK1/HA/pIRES (full length human, NCBI accession no. NP_055726.2), 45 μg Flag/AP2MI/pcDNA (full length human), and 1.5 ml OPTI-MEM. The Lipofectamine 2000 is made up of a mixture (per 10 cm dish) containing 144 μl Lipofectamine 2000 and 1.5 ml OPTI-MEM. Each mixture was transferred to individual 15 ml tubes and incubated at room temperature for 5 minutes, and then the two mixes were combined and incubated at room temperature for 20 minutes. Growth media was then aspirated from each 10 cm plate and replaced with 10 ml of DMEM+10% FBS (no GPS). Finally, 3 ml DNA/Lipofectamine mix was added to each 10 cm dish and mix gently followed by incubate of plate overnight at 37° C. and 5% CO2.
On day three, compounds were diluted in 100% DMSO at 1000× final concentration, followed by 3-fold serial dilutions for a total of 5 concentrations tested. Four compounds were tested per 10 cm dish. One ul of each compound dilution was then pipetted into a deep-well, 96-well plate, followed by addition of 500 μl DMEM+0.5% FBS into each well for a 2× final concentration of each compound. Cells were resuspended in a 10 cm dish by simple pipetting (HEK293 cells come off the plate that easy at this point) and then transferred to a 50 ml conical tube and pelleted by centrifugation at 1000 rpm for 5 min. Cell pellets were then resuspended in 2.75 ml DMEM+0.5% FBS per 10 cm dish and 100 μl of cell suspension transferred into each well of 96-well TC plate. Finally, 100 μl of 2× compound diluted in DMEM+0.5% FBS was then added into wells containing cell suspension for a 1× final concentration. Plates were then incubated at 37° C. and 5% CO2 for 3 hours followed by transferring of cell suspensions from each well into 12-tube PCR strips. The PCR strips were spun in a tip rack at 1000 rpm for 5 minutes to pellet cells and media was then removed by pipetting without disturbing the cell pellet.
To prepare for Western Blot analysis, cell pellets were resuspend in 40 ul 1×LDS-PAGE sample buffer (Invitrogen, cat.# NP0008)+2× Halt phophatase and protease inhibitor cocktail (Thermo Scientific, cat.#1861284), followed by sonicating each with microtip sonicator set at 5 for 8-10 seconds. Five ul of 10× NuPage Sample Reducing Agent (with […]) was to each sample followed by heat denaturing at 70 C for 10 min on PCR machine. A total of 10 μl per sample was loaded into each lane of a 4-20% Tris-Glycine Criterion 26-well gel (Biorad, cat.#345-0034) for the phospho-mu2 blot and 10 μl per lane in a 4-12% Bis-Tris (+MES buffer) NuPAGE 26-well gel (Invitrogen, cat.# WG1403BX10) for the mu2 blot. For controls, 2 ng of phospho-mu2 or 20 ng mu2/Flag proteins were loaded in the last well of each gel. After SDS-PAGE, samples on each gel were transferred to PVDF membrane using an iBlot and membranes were blocked for one hour in TBST+5% milk, followed by wash 3× for 5-10 min with TBST. Criterion gels were probed with rabbit anti-phospho-mu2 (1:5000; a rabbit polyclonal antibody produced by New England Peptide and affinity purified at Lexicon) in TBST+5% BSA, whereas, NuPAGE gels were probed with mouse anti-Flag (1:500; Sigma, cat.# F1804) in TBST+5% milk, and these primary antibodies were incubated overnight at 4° C. on a rocker. […]

T1 sequence (Q2M2I8 1-863 isoform Q2M2I8-2): as above

SMILES | IC50 [1] [nM] | IC50 (AAK1) [nM]
COc1ncccc1-c1cnn2ccc(-c3ccn(CCOC(C)C)c(=O)c3)nc12 [1-(2-isopropoxyethyl)-4-(3-(2-methoxypyridin-3-yl)pyrazolo[1,5-a]pyrimidin-5-yl)pyridin-2(1H)-one] | ≤ 100 | ≤ 10
COCCn1ccc(-c2ccn3ncc(-c4cccnc4OC)c3n2)cc1=O [1-(2-methoxyethyl)-4-(3-(2-methoxypyridin-3-yl)pyrazolo[1,5-a]pyrimidin-5-yl)pyridin-2(1H)-one] | ≤ 10 | ≤ 10
COc1ncccc1-c1cnn2ccc(-c3ccn(CCC(C)(C)C)c(=O)c3)nc12 [1-(3,3-Dimethylbutyl)-4-(3-(2-methoxypyridin-3-yl)pyrazolo[1,5-a]pyrimidin-5-yl)pyridin-2(1H)-one] | ≤ 10 | ≤ 10
COc1ccc(F)cc1-c1cnn2ccc(-c3ccn(CCC(C)(C)C)c(=O)c3)nc12 [1-(3,3-Dimethylbutyl)-4-(3-(5-fluoro-2-methoxyphenyl)pyrazolo[1,5-a]pyrimidin-5-yl)pyridin-2(1H)-one] | ≤ 10 | ≤ 10
COc1ncc(F)cc1-c1cnn2ccc(-c3ccn(CCC(C)(C)C)c(=O)c3)nc12 [1-(3,3-dimethylbutyl)-4-(3-(5-fluoro-2-methoxypyridin-3-yl)pyrazolo[1,5-a]pyrimidin-5-yl)pyridin-2(1H)-one] | ≤ 10 | ≤ 10
COc1ncccc1-c1cnn2ccc(-c3ccn(CC(C)C)c(=O)c3)nc12 [1-isobutyl-4-(3-(2-methoxypyridin-3-yl)pyrazolo[1,5-a]pyrimidin-5-yl)pyridin-2(1H)-one] | ≤ 10 | ≤ 10
COc1nc(C)ccc1-c1cnn2ccc(-c3ccn(CCC(C)C)c(=O)c3)nc12 [1-isopentyl-4-(3-(2-methoxy-6-methylpyridin-3-yl)pyrazolo[1,5-a]pyrimidin-5-yl)pyridin-2(1H)-one] | ≤ 10 | ≤ 10
COc1ncccc1-c1cnn2ccc(-c3ccn(CCC(C)C)c(=O)c3)nc12 [1-isopentyl-4-(3-(2-methoxypyridin-3-yl)pyrazolo[1,5-a]pyrimidin-5-yl)pyridin-2(1H)-one] | ≤ 10 | ≤ 10
COc1cc(-c2ccn3ncc(-c4cc(F)ccc4OC)c3n2)ccn1 [3-(5-fluoro-2-methoxyphenyl)-5-(2-methoxypyridin-4-yl)pyrazolo[1,5-a]pyrimidine] | ≤ 1000 | ≤ 10
CCOc1ncccc1-c1cnn2ccc(-c3ccn(CCC(C)C)c(=O)c3)nc12 [4-(3-(2-ethoxypyridin-3-yl)pyrazolo[1,5-a]pyrimidin-5-yl)-1-isopentylpyridin-2(1H)-one] | ≤ 10 | ≤ 10
COc1nc(C)ccc1-c1cnn2ccc(-c3ccn(CCC(F)(F)F)c(=O)c3)nc12 [4-(3-(2-methoxy-6-methylpyridin-3-yl)pyrazolo[1,5-a]pyrimidin-5-yl)-1-(3,3,3-trifluoropropyl)pyridin-2(1H)-one] | ≤ 100 | ≤ 10
COc1ncccc1-c1cnn2ccc(-c3ccn(CCN4CCOCC4)c(=O)c3)nc12 [4-(3-(2-methoxypyridin-3-yl)pyrazolo[1,5-a]pyrimidin-5-yl)-1-(2-morpholinoethyl)pyridin-2(1H)-one] | ≤ 10 | ≤ 10
COc1ncccc1-c1cnn2ccc(-c3ccn(CCC(F)(F)F)c(=O)c3)nc12 [4-(3-(2-methoxypyridin-3-yl)pyrazolo[1,5-a]pyrimidin-5-yl)-1-(3,3,3-trifluoropropyl)pyridin-2(1H)-one] | ≤ 10 | ≤ 10
COc1ccc(F)cc1-c1cnn2ccc(-c3ccn(CCC(F)(F)F)c(=O)c3)nc12 [4-(3-(5-fluoro-2-methoxyphenyl)pyrazolo[1,5-a]pyrimidin-5-yl)-1-(3,3,3-trifluoropropyl)pyridin-2(1H)-one] | ≤ 100 | ≤ 10
COc1ccc(F)cc1-c1cnn2ccc(-c3ccn(CC(C)C)c(=O)c3)nc12 [4-(3-(5-fluoro-2-methoxyphenyl)pyrazolo[1,5-a]pyrimidin-5-yl)-1-isobutylpyridin-2(1H)-one] | ≤ 10 | ≤ 10
COc1ccc(F)cc1-c1cnn2ccc(-c3ccn(CCC(C)C)c(=O)c3)nc12 [4-(3-(5-fluoro-2-methoxyphenyl)pyrazolo[1,5-a]pyrimidin-5-yl)-1-isopentylpyridin-2(1H)-one] | ≤ 10 | ≤ 10
COc1ncc(F)cc1-c1cnn2ccc(-c3ccn(CCC(F)(F)F)c(=O)c3)nc12 [4-(3-(5-fluoro-2-methoxypyridin-3-yl)pyrazolo[1,5-a]pyrimidin-5-yl)-1-(3,3,3-trifluoropropyl)pyridin-2(1H)-one] | ≤ 10 | ≤ 10
COc1ncc(F)cc1-c1cnn2ccc(-c3ccn(CCC(C)C)c(=O)c3)nc12 [4-(3-(5-fluoro-2-methoxypyridin-3-yl)pyrazolo[1,5-a]pyrimidin-5-yl)-1-isopentylpyridin-2(1H)-one] | ≤ 10 | ≤ 10
CC(C)CCn1ccc(-c2ccn3ncc(Br)c3n2)cc1=O [4-(3-bromopyrazolo[1,5-a]pyrimidin-5-yl)-1-isopentylpyridin-2(1H)-one] | ≤ 10 | ≤ 10
CC(C)CCn1ccc(-c2ccn3ncc(Cl)c3n2)cc1=O [4-(3-chloropyrazolo[1,5-a]pyrimidin-5-yl)-1-isopentylpyridin-2(1H)-one] | ≤ 100 | ≤ 10
CC(C)CCn1ccc(-c2ccn3ncc(I)c3n2)cc1=O [4-(3-iodopyrazolo[1,5-a]pyrimidin-5-yl)-1-isopentylpyridin-2(1H)-one] | ≤ 10 | ≤ 10
COc1ncccc1-c1cnn2ccc(-c3ccnc(OC(C)C)c3)nc12 [5-(2-isopropoxypyridin-4-yl)-3-(2-methoxypyridin-3-yl)pyrazolo[1,5-a]pyrimidine] | ≤ 100 | ≤ 10
COc1ncccc1-c1cnn2ccc(C3=CCN(C(=O)OC(C)C)CC3)nc12 [isopropyl 4-(3-(2-methoxypyridin-3-yl)pyrazolo[1,5-a]pyrimidin-5-yl)-5,6-dihydropyridine-1(2H)-carboxylate] | ≤ 10 | ≤ 10
